According to patent US20260285853A1, “COMPOUNDS AND METHODS FOR MODULATING SPLICING” (REMIX THERAPEUTICS INC., priority 2023, published 2026):
Where a name gives a salt, the structure may show the parent alone.

What was measured:
Format in all cases: cell-based
HTT mRNA [1] = test: Splicing RT-qPCR assay (THP), Table 2A; details: Table 2A, THP; for AC50: HTT alternative junction (AJ) mRNA, read-out: HTT AJ (AC50, increase in alternative junction mRNA); for IC50: HTT canonical junction (CJ) mRNA, read-out: HTT CJ (IC50, decrease in canonical junction mRNA)
MYB mRNA [2] = test: Splicing RT-qPCR assay (THP), Table 2A; details: Table 2A, THP; for AC50: MYB alternative junction (AJ) mRNA, read-out: MYB AJ (AC50, increase in alternative junction mRNA); for IC50: MYB canonical junction (CJ) mRNA, read-out: MYB CJ (IC50, decrease in canonical junction mRNA)
HTT mRNA [3] = test: Gene panel canonical junction qPCR assay, decrease in CJ mRNA, Table 3; details: decrease in CJ mRNA levels, canonical junction qPCR, gene panel
Summary of the method: (§1)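 Eleven-point dose responses from 10 uM final, 24 h, DMSO ≤0.25%, in A673 or K562 cells. Relative quantification by 2^(−ΔΔCt) against housekeeper and vehicle was converted to percent response over fixed ΔCt windows and fitted to yield IC50.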

MYB mRNA [4] = test: as above; details: decrease in CJ mRNA levels, canonical junction qPCR, gene panel
Summary of the method: as §1

[5] = tested on: SH-SY5Y (human neuroblastoma) cells; test: Cell viability, Cell Titer Glo 2.0 assay; details: read-out: Viability SHSY5Y.3 GI50
Summary of the method: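 Following a 72 h incubation (37 °C, 5% CO2, 0.1% DMSO final), compound toxicity toward SH-SY5Y cells was quantified by CellTiter-Glo 2.0.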

| SMILES | AC50 (HTT mRNA [1]) [µM] | IC50 (HTT mRNA [1]) [µM] | AC50 (MYB mRNA [2]) [µM] | IC50 (MYB mRNA [2]) [µM] | IC50 (HTT mRNA [3]) [µM] | IC50 (MYB mRNA [4]) [µM] | GI50 [5] [µM] |
| --- | --- | --- | --- | --- | --- | --- | --- |
| Cc1cn2cc(NC(=O)c3ccc(N4CCNCC4)c4cn(C)nc34)nc2c(CNS(C)(=O)=O)n1 [Compound 811] | > 10 | > 10 | 1 to 10 | > 10 | > 10 | > 10 | > 10 |
| CCNCc1nc(C)cn2cc(NC(=O)c3ccc(N4CCC(NC5CC5)CC4)c4cn(C)nc34)nc12 [Compound 812] | > 10 | > 10 | > 10 | > 10 | > 10 | > 10 | 1 to 10 |
| Cn1cc2cc(NC(=O)c3ccc(N4CCC(NC5CC5)CC4)c4cn(C)nc34)cc(CN)c2n1 [Compound 813, N-[7-(aminomethyl)-2-methyl-indazol-5-yl]-4-[4-(cyclopropylamino)-1-piperidyl]-2-methyl-indazole-7-carboxamide] | > 10 | > 10 | 1 to 10 | 1 to 10 | > 10 | 1 to 10 | > 10 |
| COC(=O)NCc1cc(NC(=O)c2ccc(N3CCC(NC4CC4)CC3)c3cn(C)nc23)cc2cn(C)nc12 [Compound 814] | > 10 | > 10 | 1 to 10 | 0.1 to 1 | > 10 | 0.1 to 1 | 1 to 10 |
| Cn1cc2cc(NC(=O)c3ccc(N4CCC(N(C(=O)OC(C)(C)C)C5CC5)CC4)c4cn(C)nc34)cc(CN)c2n1 [Compound 815] | > 10 | > 10 | > 10 | > 10 | > 10 | > 10 | 1 to 10 |
| Cc1cn2cc(NC(=O)c3ccc(N4CCC(NC5CC5)CC4)c4cn(C)nc34)cc(CNS(C)(=O)=O)c2n1 [Compound 816, 4-[4-(cyclopropylamino)-1-piperidyl]-N-[8-(methanesulfonamidomethyl)-2-methyl-imidazo[1,2-a]pyridin-6-yl]-2-methyl-indazole-7-carboxamide] | > 10 | > 10 | 1 to 10 | 1 to 10 | > 10 | 1 to 10 | > 10 |
| CCNC1CCN(c2ccc(C(=O)Nc3cc(CNS(C)(=O)=O)c4nc(C)cn4c3)c3nn(C)cc23)CC1 [Compound 817, 4-[4-(ethylamino)-1-piperidyl]-N-[8-(methanesulfonamidomethyl)-2-methyl-imidazo[1,2-a]pyridin-6-yl]-2-methyl-indazole-7-carboxamide] | > 10 | > 10 | 1 to 10 | 1 to 10 | > 10 | 1 to 10 | > 10 |
| Cn1cc2cc(NC(=O)c3ccc(N4CCC(NC5CC5)CC4)c4cn(C)nc34)cc(CN3CCCS3(=O)=O)c2n1 [Compound 818, 4-(4-(cyclopropylamino)piperidin-1-yl)-N-(7-((1,1-dioxidoisothiazolidin-2-yl)methyl)-2-methyl-2H-indazol-5-yl)-2-methyl-2H-indazole-7-carboxamide hydrochloride] | > 10 | > 10 | > 10 | > 10 | > 10 | > 10 | > 10 |
| COc1c(NC(=O)c2ccc(N3CCC(NC4CC4)CC3)c3cn(C)nc23)cc2cn(C)nc2c1CNS(C)(=O)=O [Compound 819] | 1 to 10 | 1 to 10 | 1 to 10 | 1 to 10 | 1 to 10 | 1 to 10 | 1 to 10 |
| CCNC1CCN(c2ccc(C(=O)Nc3cc(CN4CCCC4=O)c4nn(C)cc4c3)c3nn(C)cc23)CC1 [Compound 820, 4-[4-(ethylamino)-1-piperidyl]-2-methyl-N-[2-methyl-7-[(2-oxopyrrolidin-1-yl)methyl]indazol-5-yl]indazole-7-carboxamide] | > 10 | > 10 | > 10 | 1 to 10 | > 10 | 1 to 10 | > 10 |
| COc1cc2c(N3CCC(NC4CC4)CC3)ccc(C(=O)Nc3cc(CNS(C)(=O)=O)c4nn(C)cc4c3)n2n1 [Compound 821] | > 10 | 1 to 10 | 0.1 to 1 | 0.1 to 1 | 1 to 10 | 0.1 to 1 | 1 to 10 |
| Cc1cc2c(N3CCC(NC4CC4)CC3)ccc(C(=O)Nc3cc(CNS(C)(=O)=O)c4nn(C)cc4c3)n2n1 [Compound 822] | > 10 | > 10 | 0.1 to 1 | 0.1 to 1 | > 10 | 0.1 to 1 | 0.1 to 1 |
| Cn1cc2cc(NC(=O)c3ccc(N4CCC(NC5CC5)CC4)c4cn(C)nc34)cc(Cn3ccnn3)c2n1 [Compound 823] | > 10 | > 10 | 0.1 to 1 | 1 to 10 | > 10 | 1 to 10 | 1 to 10 |
| Cn1cc2cc(NC(=O)c3ccc(N4CCC(NC5CC5)CC4)c4cn(C)nc34)cc(Cn3nccn3)c2n1 [Compound 824] | > 10 | > 10 | 1 to 10 | 1 to 10 | > 10 | 1 to 10 | 1 to 10 |
| CNC1CCN(c2ccc(C(=O)Nc3cn4cc(C)nc(CNS(C)(=O)=O)c4n3)c3nn(C)cc23)CC1 [Compound 825] | > 10 | > 10 | 1 to 10 | 1 to 10 | > 10 | 1 to 10 | > 10 |
| Cc1cn2cc(NC(=O)c3ccc(N4CCC5(CCCN5)CC4)c4cn(C)nc34)nc2c(CNS(C)(=O)=O)n1 [Compound 826] | > 10 | > 10 | > 10 | > 10 | > 10 | > 10 | > 10 |
| Cc1cn2cc(NC(=O)c3ccc(N4CCC(NC5CC5)CC4)c4cn(C)nc34)nc2c(CNC(N)=O)n1 [Compound 829] | > 10 | > 10 | > 10 | > 10 | > 10 | > 10 | > 10 |
| Cc1cn2cc(NC(=O)c3ccc(N4CCC(NC5CC5)CC4)c4cn(C)nc34)nc2c(Cn2cnc3c(N)ncnc32)n1 [Compound 830] | > 10 | > 10 | > 10 | > 10 | > 10 | > 10 | > 10 |
| Cc1cn2cc(NC(=O)c3ccc(N4CCC(NC5CC5)CC4)c4cn(C)nc34)nc2c(Cn2cnc3ncnc(N)c32)n1 [Compound 831] | 0.1 to 1 | 0.1 to 1 | 0.1 to 1 | 0.1 to 1 | 0.1 to 1 | 0.1 to 1 | 0.1 to 1 |
| CNS(=O)(=O)CCc1nc(C)cn2cc(NC(=O)c3ccc(N4CCC(NC5CC5)CC4)c4cn(C)nc34)nc12 [Compound 832] | 1 to 10 | 1 to 10 | 1 to 10 | 1 to 10 | 1 to 10 | 1 to 10 | 1 to 10 |
| C=CCNC1CCN(c2ccc(C(=O)Nc3cc(CNC(=O)OC)c4nn(C)cc4c3)c3nn(C)cc23)CC1 [Compound 833] | 1 to 10 | 1 to 10 | 0.1 to 1 | 0.1 to 1 | 1 to 10 | 0.1 to 1 | 1 to 10 |
| Cn1cc2cc(NC(=O)c3ccc(N4CCC(NC5CC5)CC4)c4cn(C)nc34)cc(CNC3(C)COC3)c2n1 [Compound 834] | > 10 | > 10 | > 10 | > 10 | > 10 | > 10 | > 10 |
| C=CCNC1CCN(c2ccc(C(=O)Nc3cc(CNC4(C)COC4)c4nn(C)cc4c3)c3nn(C)cc23)CC1 [Compound 835] | > 10 | > 10 | > 10 | > 10 | > 10 | > 10 | > 10 |
| C=CCNC1CCN(c2ccc(C(=O)Nc3cc(CNS(C)(=O)=O)c4nc(C)cn4c3)c3nn(C)cc23)CC1 [Compound 836, 4-[4-(allylamino)-1-piperidyl]-N-[8-(methanesulfonamidomethyl)-2-methyl-imidazo[1,2-a]pyridin-6-yl]-2-methyl-indazole-7-carboxamide] | > 10 | > 10 | 0.1 to 1 | 0.1 to 1 | > 10 | 0.1 to 1 | 1 to 10 |
| Cc1cn2cc(NC(=O)c3ccc(N4CCC(NC5CC5)CC4)c4cn(C)nc34)nc(CNS(C)(=O)=O)c2n1 [Compound 837, 4-[4-(cyclopropylamino)-1-piperidyl]-N-[8-(methanesulfonamidomethyl)-2-methyl-imidazo[1,2-a]pyrazin-6-yl]-2-methyl-indazole-7-carboxamide] | 1 to 10 | 1 to 10 | < 0.1 | < 0.1 | 1 to 10 | < 0.1 | 0.1 to 1 |
